What was measured:
IL-6 [1] = assay: Inhibition of IL-6 mRNA induction by IFN-γ in keratinocytes (Real time RT-PCR); assay type: cell-based, human; details: IFN-γ 30 ng/ml, 6 h; 0.01-0.1-0.5 mM; FIG. 7
Method: Analysis of the inhibition by compound A of the mRNA induction of the proinflammatory cytokine IL-6 by IFN-γ was done through Real time RT-PCR. The keratinocytes were plated in dishes of 6 cm/Ø.
At 80% confluence, the cells were treated with IFN-γ (30 ng/ml) in presence of compound A (N-Acetylged) at the three concentrations (0.01-0.1-0.5 mM) for 6 h.

[2] = tested on: human primary keratinocytes; assay: MTT test on human primary keratinocytes; assay type: cell-based; details: 0.1-1-2 mM, 24 and 48 h; FIG. 5
Method: To assess the possible toxic or cytostatic effect of the substances under study, a spectrophotometric test (MTT) was carried out. The human primary keratinocytes, isolated from skin biopsies, were plated in wells of a 24-well plate in suitable medium with addition of antibiotics, calcium, and specific growth factors. At around 70% confluence, the cells were exposed to the presence of Compound A, at various concentrations (0.1-1-2 mM), for 24 and 48 h in suitable medium with addition of antibiotics, calcium, but no growth factors. This culture condition was done for all the subsequent experiments. At the end of the treatment, the MTT test was done.

sebocytes [3] = assay: Sebogenesis induced by linoleic acid and testosterone, Nile Red Assay; assay type: cell-based, human; details: LA 10^-4M, TST 20 nM, compound 1 mM
Method: Analysis of the inhibition by (compound A) of sebogenesis induced by treatment with linoleic acid (LA) and with testosterone (TST) was evaluated by spectrofluorimetry, using Nile Red as selective marker of intracellular lipids (Nile Red Assay). The sebocytes were plated in wells of a 24-well plate. Next day, they were deprived of serum (2%) and after 24 h they were stimulated, for another 24 h, with LA (10^-4M), TST (20 nM) in presence or in absence of A (1 mM). At the end of the treatment, the sebocytes were stained with Nile Red. The quantitative analysis was done by spectrofluorimetry, which made it possible to distinguish between neutral lipids and polar lipids based on the different wavelength of excitation and emission. […] (FIG. 11).
Analysis of the inhibition by compound A of sebogenesis induced by treatment with linoleic acid (LA) and with testosterone (TST) was evaluated by spectrofluorimetry, using Nile Red as selective marker of intracellular lipids (Nile Red Assay). The sebocytes were plated in wells of a 24-well plate. […] The quantitative analysis was done by spectrofluorimetry, which made it possible to distinguish between neutral lipids and polar lipids based on the different wavelength of excitation and emission.

IL-6 [4] = assay: Inhibition of IL-6 protein induction by LPS in keratinocytes (ELISA); assay type: cell-based, human; details: LPS 10 μg/ml, 24 h; 0.01-0.1-0.5 mM; FIG. 9
Method: Analysis of the inhibition by Compound A of the protein induction of IL-6 by LPS (lipopolysaccharide) was done with the ELISA kit. The keratinocytes were plated in wells of a 24-well plate. At 80% confluence, the cells were treated with LPS (10 μg/ml) in presence of compound A at the three concentrations (0.01-0.1-0.5 mM) for 24 h. At the end of the treatment, the supernatant was decanted, centrifuged so as to remove any cell detritus, and kept at −80° C. until the time of the analysis. The quantity of IL-6 present in the supernatant was normalized by the protein concentration of the sample itself.

TNF-alpha = assay: Inhibition of TNF-alpha mRNA induction by H2O2 in keratinocytes (Real time RT-PCR); assay type: cell-based, human; details: H2O2 300 μM, 6 h, FIG. 6
Method: Analysis of the inhibition of compound A of the mRNA induction of the proinflammatory cytokine TNF-alpha by H2O2 was carried out by Real time RT-PCR. The keratinocytes were plated in dishes of 6 cm/Ø. At 80% confluence, the cells were treated with H2O2 (300 μM) in presence of Compound A at the three concentrations (0.01-0.1-0.5 mM) for 6 h. At the end of the treatment, the cells were lysed in a lysis buffer and subjected to isolation and subsequent retrotranscription of the RNA. […] (FIG. 6)

sebocytes [5] = assay: MTT test on human sebocytes; assay type: cell-based; details: 0.1-0.5-1-2 mM, 24 and 48 h; FIG. 10
Method: To assess the possible toxic or cytostatic effect of the substances under study, a spectrophotometric test (MTT) was carried out. The sebocytes were plated in wells of a 24-well plate in suitable medium with addition of antibiotics, calcium and EGF. At roughly 70% confluence, the cells were exposed to the presence of compound A, in various concentrations (0.1-0.5-1-2 mM), for 24 and 48 h. At the end of the treatment, the MTT test was performed. […] (FIG. 10)

Colitis in C57bI6 mice = assay: Anti-murine colitis model (TNBS); assay type: in vivo
Method: Colitis in C57bI6 mice is induced by administering TNBS (150 mg/kg) by oral gavage on day −3. Stool samples were taken 8 hours after administration. At day 0-5, N-acetylated E2 (30 mM) was administrated by oral gavage. On day 5, mice were analyzed to obtain a mortality macroscopic score (Wallace, Gastroenterology 96: 29-36, 1989).

sebocytes [6] = assay: Sebogenesis induced by LA and TST, fatty acids and squalene by GC-MS; assay type: cell-based, human; details: compound 1 mM
Method: In order to evaluate in greater detail the inhibition by Compound A of sebogenesis induced by LA and TST, assays were performed on the lipid extract of the sebocytes using gas chromatography coupled with mass spectrometry (GC-MS). The sebocytes were treated by the scheme described for the Nile Red assay. At the end of the treatment, the cells were removed and then the lipid extraction was done by using organic solvents. One part of the extract was used to analyze the fatty acid composition, while the other part was used for the determination of the quantity of squalene, a lipid characteristic of sebum. […] (FIG. 12B)

Compound: CO[C@H](Cc1ccc(NC(C)=O)cc1)C(=O)O [Compound A, N-acetyl-(R)-(−)-3-(4-aminophenyl)-2-methoxypropionic acid]
- inhibition of mRNA expression of IL-6 induced by IFN-γ (IL-6 [1]): inhibit the expression of the inflammatory cytokine induced by presence of IFN-γ which does not appear to be dose-dependent
- cellular vitality (MTT) [2]: did not show any effect on cellular vitality
- inhibition of sebogenesis (intracellular lipids, Nile Red) (sebocytes [3]; 24 h, FIG. 11, FIG. 13): able to reduce the lipidogenic stimulus
- influence of times of treatment on inhibition of sebogenesis (Nile Red) (sebocytes [3]; FIG. 13): No differences were observed
- inhibition of protein expression of IL-6 induced by LPS (IL-6 [4]): inhibit, in dose-dependent manner
- inhibition of expression of mRNA of TNF-α induced by H2O2, higher dose (TNF-alpha; higher dose (0.5 mM), effect similar to troglitazone): complete inhibition
- inhibition of expression of mRNA of TNF-α induced by H2O2 (TNF-alpha; two higher doses (0.1 mM; 0.5 mM)): able to inhibit
- cell vitality (MTT) (sebocytes [5]): no effects on cell vitality
- % mortality (Colitis in C57bI6 mice; TNBS 150 mg/kg oral gavage day -3, N-acetylated E2 30 mM oral gavage day 0-5, versus TNBS alone, FIG. 1): comparable
- MPO (myleoperoxidase) activity (Colitis in C57bI6 mice; TNBS + N-acetyl E2 30 mM oral gavage versus TNBS alone, FIG. 3): decreased
- colonic inflammation (Ameho score) (Colitis in C57bI6 mice; TNBS + N-acetyl E2 30 mM oral gavage versus TNBS alone, FIG. 4): colonic inflammation had decreased
- level of colonic lesions (Wallace macroscopic score) (Colitis in C57bI6 mice; TNBS + N-acetyl E2 30 mM oral gavage versus TNBS alone, day 5, FIG. 2): significantly less
- fatty acid assay of lipid extract (lipidogenic stimulus) (sebocytes [6]; FIG. 12A): reduced
- squalene analysis of lipid extract (sebocytes [6]; FIG. 12B): confirmed

From patent US10137101B2, “Alkylamido compounds and uses thereof” (Nogra Pharma Limited, priority 2009, dated 2018)
